What was measured:
Assay in all cases: relative viability (nuclei count vs DMSO), 5 days (fraction); higher = more cells survive
[1] = compound: N#CC[C@H](C1CCCC1)n1cc(-c2ncnc3[nH]ccc23)cn1 [Ruxolitinib] + Cc1nc(NC(=O)N2CCC[C@H]2C(N)=O)sc1-c1ccnc(C(C)(C)C(F)(F)F)c1 [Alpelisib] (partner 2 µM)
Summary of the method: (§1)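 Relative viability equals treated-well nuclei counts divided by vehicle-well nuclei counts. Counts came from 4× images of lung cancer cell lines grown in 1536-well plates for 5 days after pin-tool dosing on the day after seeding. Dosing used one drug alone or a fixed anchor-drug dose plus five library-drug doses (not always all listed) in √10 steps, and values are medians of duplicate plates.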

[2] = compound: N#CC[C@H](C1CCCC1)n1cc(-c2ncnc3[nH]ccc23)cn1 [Ruxolitinib] + COc1cccc2cc(-c3nc([C@H]4CC[C@H](C(=O)O)CC4)n4ncnc(N)c34)[nH]c12 [OSI-027] (partner 0.5 µM)
Summary of the method: as §1

[3] = compound: N#CC[C@H](C1CCCC1)n1cc(-c2ncnc3[nH]ccc23)cn1 [Ruxolitinib] + C[C@@H](Oc1cc(-c2cnn(C3CCNCC3)c2)cnc1N)c1c(Cl)ccc(F)c1Cl [Crizotinib] (partner 1 µM)
Summary of the method: as §1

[4] = compound: N#CC[C@H](C1CCCC1)n1cc(-c2ncnc3[nH]ccc23)cn1 [Ruxolitinib] + COc1cc2c(Oc3ccc(NC(=O)C4(C(=O)Nc5ccc(F)cc5)CC4)cc3F)ccnc2cc1OCCCN1CCOCC1 [Foretinib] (partner 0.25 µM)
Summary of the method: as §1

With NCI-H1734 the relative viability ([1]; first compound 0.08 µM) was 0.68, the relative viability ([1]; first compound 0.253 µM) was 0.579 and the relative viability ([1]; first compound 0.8 µM) was 0.798. It also gave a relative viability ([1]; first compound 2.53 µM) of 0.623, a relative viability ([1]; first compound 8 µM) of 0.667 and a relative viability ([2]; first compound 0.08 µM) of 0.586. It also gave a relative viability ([2]; first compound 0.253 µM) of 0.491, a relative viability ([2]; first compound 0.8 µM) of 0.671 and a relative viability ([2]; first compound 2.53 µM) of 0.417. For the same cell line, the relative viability ([2]; first compound 8 µM) was 0.637, the relative viability ([3]; first compound 0.08 µM) was 0.66 and the relative viability ([3]; first compound 0.253 µM) was 0.721. It also gave a relative viability ([3]; first compound 0.8 µM) of 0.795, a relative viability ([3]; first compound 2.53 µM) of 0.633 and a relative viability ([3]; first compound 8 µM) of 0.559. The relative viability ([4]; first compound 0.08 µM) was 0.862, the relative viability ([4]; first compound 0.253 µM) was 0.713 and the relative viability ([4]; first compound 0.8 µM) was 0.894. For the same cell line, the relative viability ([4]; first compound 2.53 µM) was 0.759 and the relative viability ([4]; first compound 8 µM) was 0.815.
In the case of NCI-H1755, the relative viability ([1]; first compound 0.08 µM) is reported as 0.885, the relative viability ([1]; first compound 0.253 µM) is reported as 0.904 and the relative viability ([1]; first compound 0.8 µM) is reported as 0.97. For the same cell line, the relative viability ([1]; first compound 2.53 µM) was 0.796, the relative viability ([1]; first compound 8 µM) was 0.623 and the relative viability ([2]; first compound 0.08 µM) was 0.748. The relative viability ([2]; first compound 0.253 µM) was 0.732, the relative viability ([2]; first compound 0.8 µM) was 0.683 and the relative viability ([2]; first compound 2.53 µM) was 0.606. For the same cell line, the relative viability ([2]; first compound 8 µM) was 0.566, the relative viability ([3]; first compound 0.08 µM) was 0.87 and the relative viability ([3]; first compound 0.253 µM) was 0.897. It also gave a relative viability ([3]; first compound 0.8 µM) of 0.887, a relative viability ([3]; first compound 2.53 µM) of 0.784 and a relative viability ([3]; first compound 8 µM) of 0.476. The relative viability ([4]; first compound 0.08 µM) was 0.946, the relative viability ([4]; first compound 0.253 µM) was 0.892 and the relative viability ([4]; first compound 0.8 µM) was 0.91. It also gave a relative viability ([4]; first compound 2.53 µM) of 0.852 and a relative viability ([4]; first compound 8 µM) of 0.755.
Cell Line NCI-H1915 has a relative viability ([1]; first compound 0.08 µM) of 1.06, a relative viability ([1]; first compound 0.253 µM) of 1.04 and a relative viability ([1]; first compound 0.8 µM) of 1.11. It also gave a relative viability ([1]; first compound 2.53 µM) of 1.04, a relative viability ([1]; first compound 8 µM) of 0.966 and a relative viability ([2]; first compound 0.08 µM) of 0.622. For the same cell line, the relative viability ([2]; first compound 0.253 µM) was 0.619, the relative viability ([2]; first compound 0.8 µM) was 0.663 and the relative viability ([2]; first compound 2.53 µM) was 0.463. It also gave a relative viability ([2]; first compound 8 µM) of 0.464, a relative viability ([3]; first compound 0.08 µM) of 0.903 and a relative viability ([3]; first compound 0.253 µM) of 0.925. It also gave a relative viability ([3]; first compound 0.8 µM) of 1.01, a relative viability ([3]; first compound 2.53 µM) of 0.835 and a relative viability ([3]; first compound 8 µM) of 0.864. The relative viability ([4]; first compound 0.08 µM) was 1.1, the relative viability ([4]; first compound 0.253 µM) was 1.11 and the relative viability ([4]; first compound 0.8 µM) was 1.17. For the same cell line, the relative viability ([4]; first compound 2.53 µM) was 0.947 and the relative viability ([4]; first compound 8 µM) was 0.982.
NCI-H1944 gave a relative viability ([1]; first compound 0.08 µM) of 0.777, a relative viability ([1]; first compound 0.253 µM) of 0.689 and a relative viability ([1]; first compound 0.8 µM) of 0.863. It also gave a relative viability ([1]; first compound 2.53 µM) of 0.782, a relative viability ([1]; first compound 8 µM) of 0.753 and a relative viability ([2]; first compound 0.08 µM) of 0.398. It also gave a relative viability ([2]; first compound 0.253 µM) of 0.38, a relative viability ([2]; first compound 0.8 µM) of 0.368 and a relative viability ([2]; first compound 2.53 µM) of 0.374. It also gave a relative viability ([2]; first compound 8 µM) of 0.408, a relative viability ([3]; first compound 0.08 µM) of 0.99 and a relative viability ([3]; first compound 0.253 µM) of 0.955. The relative viability ([3]; first compound 0.8 µM) was 0.998, the relative viability ([3]; first compound 2.53 µM) was 0.928 and the relative viability ([3]; first compound 8 µM) was 1.02. The relative viability ([4]; first compound 0.08 µM) was 0.839, the relative viability ([4]; first compound 0.253 µM) was 0.886 and the relative viability ([4]; first compound 0.8 µM) was 0.876. The relative viability ([4]; first compound 2.53 µM) was 0.873 and the relative viability ([4]; first compound 8 µM) was 0.877.
With NCI-H1975 the relative viability ([1]; first compound 0.08 µM) was 0.663, the relative viability ([1]; first compound 0.253 µM) was 0.559 and the relative viability ([1]; first compound 0.8 µM) was 0.587. For the same cell line, the relative viability ([1]; first compound 2.53 µM) was 0.482, the relative viability ([1]; first compound 8 µM) was 0.338 and the relative viability ([2]; first compound 0.08 µM) was 0.734. It also gave a relative viability ([2]; first compound 0.253 µM) of 0.699, a relative viability ([2]; first compound 0.8 µM) of 0.639 and a relative viability ([2]; first compound 2.53 µM) of 0.485. It also gave a relative viability ([2]; first compound 8 µM) of 0.473, a relative viability ([3]; first compound 0.08 µM) of 1.07 and a relative viability ([3]; first compound 0.253 µM) of 1.01. For the same cell line, the relative viability ([3]; first compound 0.8 µM) was 1.05, the relative viability ([3]; first compound 2.53 µM) was 0.858 and the relative viability ([3]; first compound 8 µM) was 0.547. The relative viability ([4]; first compound 0.08 µM) was 1.04, the relative viability ([4]; first compound 0.253 µM) was 0.933 and the relative viability ([4]; first compound 0.8 µM) was 0.995. For the same cell line, the relative viability ([4]; first compound 2.53 µM) was 0.956 and the relative viability ([4]; first compound 8 µM) was 0.603.
NCI-H1993 gave a relative viability ([1]; first compound 0.08 µM) of 0.705, a relative viability ([1]; first compound 0.253 µM) of 0.71 and a relative viability ([1]; first compound 0.8 µM) of 0.678. It also gave a relative viability ([1]; first compound 2.53 µM) of 0.722, a relative viability ([1]; first compound 8 µM) of 0.675 and a relative viability ([2]; first compound 0.08 µM) of 0.535. It also gave a relative viability ([2]; first compound 0.253 µM) of 0.549, a relative viability ([2]; first compound 0.8 µM) of 0.538 and a relative viability ([2]; first compound 2.53 µM) of 0.584. For the same cell line, the relative viability ([2]; first compound 8 µM) was 0.541, the relative viability ([3]; first compound 0.08 µM) was 0.785 and the relative viability ([3]; first compound 0.253 µM) was 0.801. For the same cell line, the relative viability ([3]; first compound 0.8 µM) was 0.873, the relative viability ([3]; first compound 2.53 µM) was 0.61 and the relative viability ([3]; first compound 8 µM) was 0.935. For the same cell line, the relative viability ([4]; first compound 0.08 µM) was 0.752, the relative viability ([4]; first compound 0.253 µM) was 0.698 and the relative viability ([4]; first compound 0.8 µM) was 0.821. It also gave a relative viability ([4]; first compound 2.53 µM) of 0.857 and a relative viability ([4]; first compound 8 µM) of 0.817.
Work on NCI-H2009 yielded a relative viability ([1]; first compound 0.08 µM) of 1.11, a relative viability ([1]; first compound 0.253 µM) of 1.17 and a relative viability ([1]; first compound 0.8 µM) of 1.12. For the same cell line, the relative viability ([1]; first compound 2.53 µM) was 1.01, the relative viability ([1]; first compound 8 µM) was 0.903 and the relative viability ([2]; first compound 0.08 µM) was 0.668. For the same cell line, the relative viability ([2]; first compound 0.253 µM) was 0.609, the relative viability ([2]; first compound 0.8 µM) was 0.789 and the relative viability ([2]; first compound 2.53 µM) was 0.54. It also gave a relative viability ([2]; first compound 8 µM) of 0.281, a relative viability ([3]; first compound 0.08 µM) of 1.1 and a relative viability ([3]; first compound 0.253 µM) of 0.996. The relative viability ([3]; first compound 0.8 µM) was 1.12, the relative viability ([3]; first compound 2.53 µM) was 0.769 and the relative viability ([3]; first compound 8 µM) was 0.832. The relative viability ([4]; first compound 0.08 µM) was 1.21, the relative viability ([4]; first compound 0.253 µM) was 1.27 and the relative viability ([4]; first compound 0.8 µM) was 1.23. It also gave a relative viability ([4]; first compound 2.53 µM) of 1.15 and a relative viability ([4]; first compound 8 µM) of 0.876.
Cell Line NCI-H2023 has a relative viability ([1]; first compound 0.08 µM) of 0.617, a relative viability ([1]; first compound 0.253 µM) of 0.56 and a relative viability ([1]; first compound 0.8 µM) of 0.595. The relative viability ([1]; first compound 2.53 µM) was 0.489, the relative viability ([1]; first compound 8 µM) was 0.6 and the relative viability ([2]; first compound 0.08 µM) was 0.455. It also gave a relative viability ([2]; first compound 0.253 µM) of 0.298, a relative viability ([2]; first compound 0.8 µM) of 0.556 and a relative viability ([2]; first compound 2.53 µM) of 0.343. For the same cell line, the relative viability ([2]; first compound 8 µM) was 0.411, the relative viability ([3]; first compound 0.08 µM) was 0.533 and the relative viability ([3]; first compound 0.253 µM) was 0.574. For the same cell line, the relative viability ([3]; first compound 0.8 µM) was 0.746, the relative viability ([3]; first compound 2.53 µM) was 0.704 and the relative viability ([3]; first compound 8 µM) was 0.719. It also gave a relative viability ([4]; first compound 0.08 µM) of 0.682, a relative viability ([4]; first compound 0.253 µM) of 0.897 and a relative viability ([4]; first compound 0.8 µM) of 0.947. For the same cell line, the relative viability ([4]; first compound 2.53 µM) was 0.978 and the relative viability ([4]; first compound 8 µM) was 1.32.

From the supplement of paper PMC10307832
